Columns and labels:
Bacillus subtilis = experiment: Compound was tested in vitro for antibacterial activity against Bacillus subtilis.; format: functional
Enterococcus faecalis = experiment: Compound was tested in vitro for antibacterial activity against Enterococcus faecalis.; format: functional
Escherichia coli = experiment: Compound was tested in vitro for antibacterial activity against Escherichia coli.; format: functional
Enterobacter = experiment: Compound was tested in vitro for antibacterial activity against Enterobacter.; format: functional
[1] = Compound was tested in vitro for inhibition of gram negative organisms.; format: functional; conditions: Bacteria
[2] = Compound was tested in vitro for inhibition of gram positive organisms.; format: functional; conditions: Bacteria
Klebsiella = experiment: Compound was tested in vitro for antibacterial activity against Klebsiella.; format: functional
Morganella = experiment: Compound was tested in vitro for antibacterial activity against Morganella.; format: functional
Providencia = experiment: Compound was tested in vitro for antibacterial activity against Providencia.; format: functional
Salmonella = experiment: Compound was tested in vitro for antibacterial activity against Salmonella.; format: functional
Micrococcus luteus = experiment: Compound was tested in vitro for antibacterial activity against Sarcina lutea.; format: functional, sarcinea lutea
Serratia = experiment: Compound was tested in vitro for antibacterial activity against Serratia.; format: functional
Staphylococcus = experiment: Compound was tested in vitro for antibacterial activity against Staphylococcus.; format: functional

SMILES	MIC (Bacillus subtilis) [µg/mL]	MIC (Enterococcus faecalis) [µg/mL]	MIC (Escherichia coli) [µg/mL]	MIC (Enterobacter) [µg/mL]	MIC [1] [µg/mL]	MIC [2] [µg/mL]	MIC (Klebsiella) [µg/mL]	MIC (Morganella) [µg/mL]	MIC (Providencia) [µg/mL]	MIC (Salmonella) [µg/mL]	MIC (Micrococcus luteus) [µg/mL]	MIC (Serratia) [µg/mL]	MIC (Staphylococcus) [µg/mL]
CCCOC1=C(C(=O)[O-])N2C(=O)[C@H]([C@@H](C)O)[C@H]2S1.[Na+]	1	32	14.4	≥ 73.5	31.6	2.44	20.2	64	≥ 64	10.6	1	≥ 87.1	1.66
C[C@@H](O)[C@H]1C(=O)N2C(C(=O)[O-])=C(OCCOC(N)=O)S[C@H]12.[Na+]	1	64	6.62	10.1	8.3	2.07	4.92	16	27.9	4	0.5	16	1.57
C[C@@H](O)[C@H]1C(=O)N2C(C(=O)[O-])=C(SCCOC(N)=O)S[C@H]12.[Na+]	–	–	–	–	0.5	0.2	–	–	–	–	–	–	–
COC1=C(C(=O)[O-])N2C(=O)[C@H]([C@@H](C)O)[C@H]2S1.[Na+]	1.41	32	10.4	24.2	16.6	3.2	8.98	45.3	39.4	6.96	2	29.6	1.51
CCSC1=C(C(=O)[O-])N2C(=O)[C@H]([C@@H](C)O)[C@H]2S1.[Na+]	–	–	–	–	0.7	0.1	–	–	–	–	–	–	–
CCCCOC1=C(C(=O)[O-])N2C(=O)[C@H]([C@@H](C)O)[C@H]2S1.[Na+]	1	32	≥ 25.9	≥ 128	53	2.26	≥ 32	≥ 90.5	≥ 80.6	≥ 36.8	1	≥ 128	1.51
C[C@@H](O)[C@H]1C(=O)N2C(C(=O)[O-])=C(SCCN)S[C@H]12.[Na+]	–	–	–	–	3.6	0.2	–	–	–	–	–	–	–
C[C@@H](O)[C@H]1C(=O)N2C(C(=O)[O-])=C(OCCN)S[C@H]12.[Na+]	8	45.3	≥ 128	≥ 128	≥ 128	27.3	≥ 128	≥ 128	≥ 128	≥ 128	32	≥ 128	27.4
CCOC1=C(C(=O)[O-])N2C(=O)[C@H]([C@@H](C)O)[C@H]2S1.[Na+]	1	64	6.82	≥ 24.2	12.1	2.8	5.04	45.3	39.4	4.6	1	≥ 22.6	3.12
